Results taken from patent US4216324A, “1-Difluoromethyl-6,7-methylenedioxy-1,4-dihyd ro-4-oxo-3-quinolinecarboxylic acid” (E. I. Du Pont de Nemours and Company, priority 1978, dated 1980).
Values after ≈ are worked out from the molar mass of the structure shown. Read-outs that look alike come from different tables or passages of the source.

Tests used:
[1] = tested on: Sal typhosa; test: In vitro minimum inhibitory concentration (MIC), tube dilution test; format: cell-based; conditions: read-out: Minimal Inhibitory Test Conens. (MIC)
Experimental: (§1) A. In vitro: mimimum inhibitory concentration (MIC)
(§2) The compound was tested in a standard bacteriological tube dilution test for MIC for a variety of bacteria. Stock cultures of the bacteria listed in Table 1 were grown in bacterial culture media at 37° C. overnight and diluted in culture tubes to a previously determined concentration proper for the test. The compound was added to result in final concentrations of 10, 2, 0.4 and 0.08 μg/ml. These were incubated for 18 hours at 37° C. and then observed to determine if growth of bacteria had occurred. The lowest concentration of the compound that inhibited bacterial growth in the MIC.
(§3) *brain-heart infusion broth, 20hour incubation at 37° C.

[2] = tested on: Staph. aureus; test: as above; format: cell-based; conditions: Staphylococcus aureus; Staph. aureus (08F); brain-heart infusion broth, 20hour incubation at 37° C.; read-out: Minimal Inhibitory Test Conens. (MIC)
Experimental: as §1, §2, §3

[3] = tested on: mice; test: General pharmacology screen in mice; conditions: summary in words of Tables 3 and 4 (mice and rats)
Experimental: 17- to 24-hour fasted female white mice, 16-20 g. each, or rats, 70-90 g. each were dosed orally with test drug (or standard) at 0, 4, 12, 36, 108 or 324 mg./kg.
Ataxia--The mouse or rat was placed upright on the bench top facing away from the observer. Motor incoordination manifested by abnormal gait or lack of precision during purposive movements constituted ataxia.
Vertical Bar--The mouse or rat was swung by the tail with head pointing down to a 0.5" diameter (1" diameter for rats), 30.5 cm long vertical rod covered with adhesive tape. Inability to grip the rod with the front paws, sliding or failure to move after being prodded constituted vertical bar loss.
Body Temperature--The rectal temperatures of the mice and rats were taken using a KC-1 thermocouple probe.
Excitement and Irritability--Increased spontaneous motor activity, running and jumping prior to handling were recorded as excitement. Upon handling, jumping, jerking, biting and squeaking were recorded as irritability.
Anorexia--At the end of the 0.5 hour testing period, each mouse was transferred to an individual, clear, Lucite® compartment (13.3 cm×12.7 cm×12.7 cm) with a 0.64 cm×0.64 cm wire mesh floor. Inside each compartment there was a section of a black Lucite® bar [13 cm×1.2 cm×1.2 cm) with ten spot depressions (0.8 cm diameter) each containing 0.05 ml. of 50% sweetened condensed milk. 30 Minutes later the number of milk spots consumed was counted. 5 Mice per drug dose can drink a maximum of 50 spots (2.5 ml. of milk). 15 or fewer spots consumed by 5 mice constituted anorexia.

[4] = cited from earlier work; for undesirable side effects: Cox, Delaware Medical Journal, 1970
[5] = tested on: Escherichia coli; test: Escherichia coli (mouse infections); format: in vivo; conditions: female white mice, oral, at infection and again 4 hours after, 72 hours, Reed-Muench, read-out: ED50 (dose effective to save 50% of the mice)
Experimental: 1. Escherichia coli (mouse infections)
(§4) Female white mice weighing approximately 20 grams were infected by injecting a sufficient number of E. coli cells intraperitoneally to cause 85-100% fatalities within 3 days after infection. Groups of 12 such infected mice were dosed orally by intubation with the compound suspended in water to equal 40, 20, 10 and 5 mg/kg at the time of infection and again 4 hours after infection time. […] The dose effective to save 50% of the mice (ED50) was calculated by the Reed-Muench method (Reed, L. J. Muench, H. A Single Method of Estimating 50% Endpoints, Am. J. Hygiene 27, p. 493-497 (1938)).

[6] = tested on: Staphylococcus aureus; test: Staphylococcus aureus (mouse infections); format: in vivo; conditions: female white mice, oral, at infection and again 4 hours after, 72 hours, Reed-Muench, read-out: ED50 (dose effective to save 50% of the mice)
Experimental: as §4
2. Staphylococcus aureus (mouse infections)
The same methods as the previous test were used, except the compound concentrations were 400, 200, 100 and 50 mg/kg. The ED50 's appear in Table 2.

[7] = tested on: bacteria; conditions: Ronald et al., New England Journal of Medicine, 1966; cited from earlier work

| SMILES | MIC ([1]; Sal typhosa (02D), brain-heart infusion broth, 20hour incubation at 37° C.) [µg/mL] | MIC [2] [µg/mL] | untoward effects in the general pharmacology screen [3] | undesirable side effects [4] | toxicity, use in therapy of urinary tract infections ([4]; Kershaw and Leigh, 1975) | MIC ([1]; 20 h) [µg/mL] | ED50 [5] [mg/kg] | ED50 [6] [mg/kg] | bacterial resistance [7] |
| --- | --- | --- | --- | --- | --- | --- | --- | --- | --- |
| CCn1cc(C(=O)O)c(=O)c2cc3c(cc21)OCO3 [Oxolinic Acid, oxolinic acid] | 0.4 (≈ 1.53 µM) | 0.4 (≈ 1.53 µM) | produced ataxia, anorexia, excitation, and irritability | a high incidence of undesirable side effects | because of toxicity, "it should not be used as a first-line drug in the therapy of urinary tract infections." |  |  |  |  |
| O=C(O)c1cn(C(F)F)c2cc3c(cc2c1=O)OCO3 [DFMQ, 1-difluoromethyl-6,7-methylenedioxy-1,4-dihydro-4-oxo-3-quinolinecarboxylic acid] |  | 0.4 (≈ 1.41 µM) |  |  |  | < 0.08 | 9.9 | 149 |  |
| CCn1cc(C(=O)O)c(=O)c2ccc(C)nc21 [Nalidixic Acid, nalidixic acid] |  | 2 (≈ 8.61 µM) | produced some ataxia, and anorexia | a relatively high incidence of side effects |  |  |  |  | tendency to rapidly evoke bacterial resistance |
